Source: patent publication US20250154163A1, “Pyrimidinone-Containing 17-Beta-Hydroxysteroid Dehydrogenase Type 13 Inhibitors” (ENANTA PHARMACEUTICALS, INC., priority 2023, published 2025)
pIC50: −log10 of the molar value.

Tests used:
[1] = biological target: T1, Recombinant human 17β-HSD13 (Homo sapiens, UniProt Q7Z5P4); experiment: 17β-HSD13 rapid-fire mass spectrometry assay (RF/MS assay); format: biochemical; conditions: inhibition of 17β-HSD13, RF/MS assay; HSD17B13 80 nM, LTB4 10 μM, NAD+ 0.5 mM, RT 3 h
T1 construct: host or cells: Sf9 insect cells
T1 sequence (Q7Z5P4 20-300): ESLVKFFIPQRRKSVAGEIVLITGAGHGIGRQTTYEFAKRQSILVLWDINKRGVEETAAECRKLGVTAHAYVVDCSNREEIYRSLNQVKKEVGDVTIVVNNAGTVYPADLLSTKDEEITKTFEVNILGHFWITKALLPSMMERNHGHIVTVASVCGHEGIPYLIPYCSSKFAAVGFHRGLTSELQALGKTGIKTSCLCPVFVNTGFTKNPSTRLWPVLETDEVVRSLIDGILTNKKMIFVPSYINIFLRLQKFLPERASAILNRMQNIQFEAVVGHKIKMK
Text: 17(3-HSD13 rapid-fire mass spectrometry assay (RF/MS assay). Recombinant human 17β-HSD13 was expressed and purified from sf9 cells at Charles River Labs (Saffron Walden, UK). Leukotriene B4 (Catalog #71160-24-2) and 12-oxoleukotriene B4 (Catalog #20140) were purchased from Cayman Chemicals (Ann Arbor, MI). NAD+ (Catalog #N8285), BSA (Catalog #A7030), DMSO (Catalog #D2650), and Tween-20 (Catalog #11332465001) were purchased from Sigma (St. Louis, MO). Formic acid (Catalog #28905) was from ThermoFisher Scientific and 384 deep well PP microplates (Catalog #784261) were from Greiner Bio-One. In a typical IC50 assay performed in a 384w PP microplate, test compounds (0-100 μM) were incubated with HSD17B13 (80 nM), LTB4 (10 μM), and NAD^+ (0.5 mM) in 10 μL assay buffer (20 mM Tris (pH 7.5), BSA (0.005%), and Tween-20 (0.01%)) at RT for 3 h. The assays were quenched by adding 20 μL of 0.15% aqueous formic acid and the plates were frozen at −80° C. RF/MS analysis was performed at PureHoney Technologies (Billerica, MA) on a RapidFire RF300 system (Agilent Technologies, Inc.) coupled to an API 4000 triple quadrupole mass spectrometer (Sciex) equipped with Agilent RapidFire cartridge type A (C4). The mobile phase was 0.09% formic acid and 0.01% trifluoracetic acid in water (Buffer A) and 0.09% formic acid and 0.01% trifluoracetic acid in 80% aqueous acetonitrile (Buffer B). The RapidFire method conditions were the following: 250 ms aspirate, 3000 ms load/desalt, 4000 ms elute, and 500 ms re-equilibrate. RF-MS/MS was performed in negative polarity (−4500 V), the source temperature was 650° C., and gas 1 and gas 2 settings for nitrogen were set to 50. The curtain gas and collision gas were also nitrogen and were set to 20 and 12, respectively. Leukotriene B4 (335.3) and 12-oxoLeukotriene B4 (333.3) SRM transitions were optimized with Discovery Quant software and extracted ion counts for these analytes were determined.
Data Analysis. 17β-HSD13 enzyme activity was measured as percent conversion of extracted ion counts and normalized to high and low controls to determine percent residual activity at various concentrations of test compounds. Data was fitted to normalized activity (variable slope) versus concentration fit in GraphPad Prism 7 to determine IC50. All experiments were run in duplicates.
By using the above method, the inhibition of 17β-HSD13 was evaluated for the compounds of Formula (I). IC50 ranges are as follows: A is <0.1 μM; B is 0.1 μM-1.0 μM; C is 1.0 μM-10 μm; and D is >10 μM.

[2] = biological target: T2, human HSD17β13 (stable HEK293T cell line overexpressing human HSD17β13) (Homo sapiens, UniProt Q7Z5P4); experiment: HSD17β13 inhibitor cell-based screening assay (conversion of estradiol-d2 to estrone-d2 by RF-MS); conditions: conversion of estradiol-d2 to estrone-d2 after 24 hours
T2 construct: expressed in transfected cells
T2 sequence (Q7Z5P4 20-300): T1 sequence (Q7Z5P4 20-300)
Outline: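 Cellular IC50 is based on 24-h conversion of estradiol-d2 (5 μM final) to estrone-d2, measured by RF-MS in acetonitrile-precipitated supernatants. Assay uses human HSD17β13-overexpressing HEK293T cells (7.5E3/well, 1% charcoal/dextran FBS MEM), with compounds dosed as a 9-point 1:3 series to 10 μM final. ATPlite luminescence on overexpressing and parent lines measured viability.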

Q: Which results are given for `COC(=O)c1cccc2c1sc1nc(-c3ccc(OC)cc3C3CC3)n(Cc3cnco3)c(=O)c12` [Example 1, methyl 2-(2-cyclopropyl-4-methoxyphenyl)-3-(oxazol-5-ylmethyl)-4-oxo-3,4-dihydrobenzo[4,5]thieno[2,3-d]pyrimidine-8-carboxylate]?
A: pIC50 [1]: < 5.00; pIC50 [2]: 4.00 to 6.00

Q: `O=c1c2c(nc(-c3cnc(C(F)(F)F)cc3C3CC3)n1Cc1ccc(C(F)(F)F)nc1)sc1c(O)c(Cl)ccc12` [Example 179] was tested. Which pIC50 [2] did it give?
A: > 7.00

Q: With `O=c1c2c(nc(-c3ccc(C(F)F)cc3C3CC3)n1Cc1ccc(C(F)(F)F)nc1)sc1c(O)c(Cl)ccc12` [Example 180] as the molecule, how does the pIC50 [2] read?
A: > 7.00

Q: `O=c1c2c(nc(-c3cc(F)c(C(F)F)cc3C3CC3)n1Cc1ccc(C(F)(F)F)nc1)sc1c(O)c(Cl)ccc12` [Example 181] was tested. Which pIC50 [2] did it give?
A: > 7.00

Q: With `Cn1ncc2cc(-c3nc4sc5c(O)c(Cl)ccc5c4c(=O)n3Cc3cnc(C(F)(F)F)nc3)c(C3CC3)cc21` [Example 182] as the molecule, how does the pIC50 [2] read?
A: > 7.00

Q: With `O=c1c2c(nc(-c3cc(F)c(F)cc3C3CC3)n1Cc1cnc(C(F)(F)F)nc1)sc1c(O)c(F)ccc12` [Example 183] as the molecule, how does the pIC50 [2] read?
A: > 7.00

Q: How did the pIC50 [2] turn out when `O=c1c2c(nc(-c3cc(F)c(F)cc3C3CC3)n1Cc1cnc(C(F)(F)F)nc1)sc1c(O)ccc(F)c12` [Example 184] was run?
A: > 7.00

Q: `CS(=O)(=O)Nc1ccc(-c2nc3sc4c(O)c(Cl)ccc4c3c(=O)n2Cc2cnc(C(F)(F)F)nc2)c(C2CC2)c1` [Example 185] was tested. Which pIC50 [2] did it give?
A: > 7.00

Q: `Cn1cc(Cn2c(-c3ccc(C(F)F)cc3C3CC3)nc3sc4c(O)c(Cl)ccc4c3c2=O)ccc1=O` [Example 186] was tested. Which pIC50 [2] did it give?
A: > 7.00

Q: `Cn1cc(Cn2c(-c3cc(F)c(C(F)F)cc3C3CC3)nc3sc4c(O)c(Cl)ccc4c3c2=O)ccc1=O` [Example 187] was tested. Which pIC50 [2] did it give?
A: > 7.00

Q: `COc1ccc(-c2nc3sc4c(O)c(Cl)ccc4c3c(=O)n2CCc2cnco2)c(C2CC2)c1` [Example 188, 7-chloro-2-(2-cyclopropyl-4-methoxyphenyl)-8-hydroxy-3-(2-(oxazol-5-yl)ethyl)benzo[4,5]thieno[2,3-d]pyrimidin-4(3H)-one] was tested. Which pIC50 [2] did it give?
A: 6.30 to 7.00

Q: How did the pIC50 [2] turn out when `COc1ccc(-c2nc3sc4c(O)c(Cl)ccc4c3c(=O)n2CCCc2cnco2)c(C2CC2)c1` [Example 189] was run?
A: > 7.00

Q: How did the pIC50 [2] turn out when `COc1ccc(-c2nc3sc4c(O)c(Cl)ccc4c3c(=O)n2Cc2cnc(C)s2)c(C2CC2)c1` [Example 192] was run?
A: > 7.00

Q: `COc1ccc(-c2nc3sc4c(O)c(Cl)ccc4c3c(=O)n2Cc2cncn2C)c(C2CC2)c1` [Example 193] was tested. Which pIC50 [2] did it give?
A: > 7.00

Q: How did the pIC50 [2] turn out when `Cn1ncc2cc(C3CC3)c(-c3nc4sc5c(O)c(Cl)ccc5c4c(=O)n3Cc3cnco3)cc21` [Example 194] was run?
A: 6.00 to 6.30

Q: How did the pIC50 [2] turn out when `Cn1cc2cc(C3CC3)c(-c3nc4sc5c(O)c(Cl)ccc5c4c(=O)n3Cc3cnco3)cc2n1` [Example 195] was run?
A: > 7.00

Q: With `COc1ccc(-c2nc3sc4c(O)c(Cl)ccc4c3c(=O)n2Cc2cnc(C(C)C)s2)c(C2CC2)c1` [Example 196] as the molecule, how does the pIC50 [2] read?
A: > 7.00

Q: How did the pIC50 [2] turn out when `COc1ccc(-c2nc3sc4c(O)c(Cl)ccc4c3c(=O)n2Cc2cnc(C(F)F)s2)c(C2CC2)c1` [Example 197] was run?
A: > 7.00

Q: How did the pIC50 [2] turn out when `COc1ccc(-c2nc3sc4c(O)c(Cl)ccc4c3c(=O)n2Cc2cnc(C(F)(F)F)s2)c(C2CC2)c1` [Example 198] was run?
A: > 7.00

Q: `COc1ccc(-c2nc3sc4c(O)c(Cl)ccc4c3c(=O)n2Cc2cc(C(F)F)no2)c(C2CC2)c1` [Example 199] was tested. Which pIC50 [2] did it give?
A: > 7.00

Q: `COc1ccc(-c2nc3sc4c(O)c(Cl)ccc4c3c(=O)n2Cc2ncc(C)o2)c(C2CC2)c1` [Example 200, 7-chloro-2-(2-cyclopropyl-4-methoxyphenyl)-8-hydroxy-3-((5-methyloxazol-2-yl)methyl)benzo[4,5]thieno[2,3-d]pyrimidin-4(3H)-one] was tested. Which pIC50 [2] did it give?
A: > 7.00

Q: `COc1ccc(-c2nc3sc4c(O)c(Cl)ccc4c3c(=O)n2Cc2cnn(C(F)(F)F)c2)c(C2CC2)c1` [Example 201] was tested. Which pIC50 [2] did it give?
A: > 7.00

Q: How did the pIC50 [2] turn out when `COc1ccc(-c2nc3sc4c(O)c(Cl)ccc4c3c(=O)n2Cc2nncs2)c(C2CC2)c1` [Example 202] was run?
A: > 7.00

Q: `COc1cc(C2CC2)c(-c2nc3sc4c(O)c(Cl)ccc4c3c(=O)n2Cc2cnco2)cn1` [Example 203] was tested. Which pIC50 [2] did it give?
A: 6.30 to 7.00

Q: With `O=c1c2c(nc(-c3cnc(C(F)(F)F)cc3C3CC3)n1Cc1cnco1)sc1c(O)c(Cl)ccc12` [Example 204] as the molecule, how does the pIC50 [2] read?
A: > 7.00

Q: How did the pIC50 [2] turn out when `CCc1ncc(Cn2c(-c3cc(F)c(F)cc3C3CC3)nc3sc4c(O)c(Cl)ccc4c3c2=O)s1` [Example 205] was run?
A: > 7.00

Q: `C/C=C/c1cc2cn[nH]c2cc1-c1nc2sc3c(O)c(Cl)ccc3c2c(=O)n1Cc1cnco1` [Example 206] was tested. Which pIC50 [2] did it give?
A: 6.30 to 7.00

Q: With `O=c1c2c(nc(-c3cc(F)c(F)cc3C3CC3)n1Cc1cnccn1)sc1c(O)c(Cl)ccc12` [Example 207] as the molecule, how does the pIC50 [2] read?
A: > 7.00

Q: `COCc1cc(Cn2c(-c3cc(F)c(F)cc3C3CC3)nc3sc4c(O)c(Cl)ccc4c3c2=O)on1` [Example 208] was tested. Which pIC50 [2] did it give?
A: > 7.00

Q: How did the pIC50 [2] turn out when `O=c1c2c(nc(-c3cc(F)c(F)cc3C3CC3)n1Cc1nncs1)sc1c(O)c(Cl)ccc12` [Example 209] was run?
A: > 7.00

Q: How did the pIC50 [2] turn out when `N#Cc1ncc(Cn2c(-c3cc(F)c(F)cc3C3CC3)nc3sc4c(O)c(Cl)ccc4c3c2=O)s1` [Example 210] was run?
A: > 7.00

Q: `O=c1c2c(nc(-c3cc(F)c(F)cc3C3CC3)n1Cc1cnn(C(F)(F)F)c1)sc1c(O)c(Cl)ccc12` [Example 211] was tested. Which pIC50 [2] did it give?
A: > 7.00

Q: How did the pIC50 [2] turn out when `O=c1c2c(nc(-c3cc(F)c(F)cc3C3CC3)n1Cc1ccns1)sc1c(O)c(Cl)ccc12` [Example 212] was run?
A: > 7.00

Q: With `O=c1c2c(nc(-c3cc(F)c(F)cc3C3CC3)n1Cc1nn[nH]n1)sc1c(O)c(Cl)ccc12` [Example 213] as the molecule, how does the pIC50 [2] read?
A: 4.00 to 6.00

Q: With `O=c1c2c(nc(-c3cc(F)c(F)cc3C3CC3)n1Cc1cn[nH]n1)sc1c(O)c(Cl)ccc12` [Example 214] as the molecule, how does the pIC50 [2] read?
A: > 7.00

Q: With `O=c1c2c(nc(-c3cc(F)c(F)cc3C3CC3)n1Cc1cn[nH]c1)sc1c(O)c(Cl)ccc12` [Example 215] as the molecule, how does the pIC50 [2] read?
A: > 7.00

Q: `Cn1cc(Cn2c(-c3cc(F)c(F)cc3C3CC3)nc3sc4c(O)c(Cl)ccc4c3c2=O)cn1` [Example 216] was tested. Which pIC50 [2] did it give?
A: > 7.00

Q: How did the pIC50 [2] turn out when `O=c1c2c(nc(-c3cc(F)c(F)cc3C3CC3)n1Cc1nnc(C(F)(F)F)s1)sc1c(O)c(Cl)ccc12` [Example 217] was run?
A: > 7.00

Q: How did the pIC50 [2] turn out when `COc1ccc(-c2nc3sc4c(O)c(Cl)cc(F)c4c3c(=O)n2Cc2cnco2)c(C2CC2)c1` [Example 218, 7-chloro-2-(2-cyclopropyl-4-methoxyphenyl)-5-fluoro-8-hydroxy-3-(oxazol-5-ylmethyl)benzo[4,5]thieno[2,3-d]pyrimidin-4(3H)-one] was run?
A: > 7.00

Q: How did the pIC50 [2] turn out when `O=c1c2c(nc(-c3cc(F)c(F)cc3C3CC3)n1Cc1cc(C(F)(F)F)no1)sc1c(O)c(Cl)cc(F)c12` [Example 219, 7-chloro-2-(2-cyclopropyl-4,5-difluorophenyl)-5-fluoro-8-hydroxy-3-((3-(trifluoromethyl)isoxazol-5-yl)methyl)benzo[4,5]thieno[2,3-d]pyrimidin-4(3H)-one] was run?
A: > 7.00

Q: How did the pIC50 [2] turn out when `COc1ccc(-c2nc3sc4c(O)c(Cl)cc(C)c4c3c(=O)n2Cc2cnco2)c(C2CC2)c1` [Example 221] was run?
A: 6.30 to 7.00

Q: `COc1ccc(-c2nc3sc4c(O)c(Cl)cc(Br)c4c3c(=O)n2Cc2cnco2)c(C2CC2)c1` [Example 222] was tested. Which pIC50 [2] did it give?
A: 6.30 to 7.00

Q: How did the pIC50 [2] turn out when `COc1ccc(-c2nc3sc4c(O)c(F)cc(F)c4c3c(=O)n2Cc2cnco2)c(C2CC2)c1` [Example 223, 2-(2-cyclopropyl-4-methoxyphenyl)-5,7-difluoro-8-hydroxy-3-(oxazol-5-ylmethyl)benzo[4,5]thieno[2,3-d]pyrimidin-4(3H)-one] was run?
A: > 7.00
